Molecules are shown by their SMILES.

What all share (type): cell-based
For assay [1], the system named is human oral squamous carcinoma cell line OECM-1. Description: Combined chemo- and radiotherapy (CCRT) treatment, OECM-1 parental cells and spheres. The conditions noted are these: 20 μM Cisplatin for 24 hours followed by radiotherapy, FIG. 4(C). The protocol:
(§1) Cells were seeding in 10-cm cell culture dish at a density of 1×10^6 cells/dish. For the chemosensitivity assay, cells were treated with 10 to 200 μM Cisplatin (Sigma, St Louis, Mo., U.S.A.) for 48 hours. For the radiosensitivity assay, cells were irradiated using a CyberKnife® radiosurgery system (Accuray, Sunnyvale, Calif., U.S.A.) to deliver different doses (2-10 Gy). Relative survival fraction of cells was determined by MTS assay using the CellTiter® 96 Aqueous One Solution Cell Proliferation Assay kit (Promega, Madison, Wis., U.S.A.) after 36 hours of radiation treatment. To imitate the clinical condition, a combined chemo- and radiotherapy (CCRT) treatment was administered on SAS and OECM-1 parental cells and their spheres. Please refer to FIG. 4(C), which depicts the survival (%) of SAS and OECM-1 parental cells and their spheres after Cisplatin treatment followed by radiation treatment. This assay was performed by treating cells with chemotherapy using 20 μM Cisplatin for 24 hours followed by radiotherapy. […] Please refer to FIG. 4(D), which depicts the survival (%) of SAS and OECM-1 parental cells and their spheres after radiation treatment followed by Cisplatin treatment. […]

The subject of assay [2] is human tongue cancer cell line SAS. Description: Combined chemo- and radiotherapy (CCRT) treatment, SAS parental cells and spheres. The conditions noted are these: 20 μM Cisplatin for 24 hours followed by radiotherapy, FIG. 4(C). The protocol:
as §1

Assay [3] shares this test system. Description: Chemosensitivity assay (MTS), SAS parental cells and spheres. Particulars: Cisplatin doses up to 200 μM for 48 hours, FIG. 4(B). The protocol:
(§2) Cells were seeding in 10-cm cell culture dish at a density of 1×10^6 cells/dish. For the chemosensitivity assay, cells were treated with 10 to 200 μM Cisplatin (Sigma, St Louis, Mo., U.S.A.) for 48 hours. For the radiosensitivity assay, cells were irradiated using a CyberKnife® radiosurgery system (Accuray, Sunnyvale, Calif., U.S.A.) to deliver different doses (2-10 Gy). Relative survival fraction of cells was determined by MTS assay using the CellTiter® 96 Aqueous One Solution Cell Proliferation Assay kit (Promega, Madison, Wis., U.S.A.) after 36 hours of radiation treatment. Please refer to FIG. 4(A), which depicts the survival (%) of SAS and OECM-1 parental cells and their spheres after radiation treatment, and cell viability was evaluated after these cells were treated with radiation doses up to 10 Gy for 36 hours and were subject to a MTS assay. In FIG. 4(A), SAS and OECM-1 spheres were more radioresistant than their parental cells. Please refer to FIG. 4(B), which depicts the survival (%) of SAS and OECM-1 parental cells and their spheres after the Cisplatin treatment, and cell viability was evaluated after these cells were treated with Cisplatin doses up to 200 μM for 48 hours and were subject to a MTS (3-(4,5-dimethylthiazol-2-yl)-5-(3-carboxymethoxyphenyl)-2-(4-sulfophenyl)-2H-tetrazolium) assay.

The subject of assay [4] is human oral squamous carcinoma cell line OECM-1. Description: Chemosensitivity assay (MTS), OECM-1 parental cells and spheres. The conditions noted are these: Cisplatin doses up to 200 μM for 48 hours, FIG. 4(B). The protocol: as §2

With `N.N.[Cl][Pt][Cl]` [Cisplatin], the “survival (%) after Cisplatin treatment followed by radiation treatment, vs single treatment” value in assay [1] was “more effective in reducing the survival rate of the parental cells and spheres compared with the single treatment”; in assay [2], “more effective in reducing the survival rate of the parental cells and spheres compared with the single treatment”. Besides, the “survival (%) after Cisplatin treatment, spheres vs parental cells” value in assay [3] and in assay [4] was “spheres were more resistant to Cisplatin than their parental cells” throughout.

Values taken from patent US20140038289A1, “NONADHESIVE SPHERE CELL CULTURE CONTAINER, SYSTEM, AND METHOD” (NATIONAL DEFENSE MEDICAL CENTER, priority 2012, published 2014).
